BigSolDB 2.1

O=P(O)(O)c1ccccc1-c1ccccc1O
Conditions | solubility (mole fraction)
in chlorobenzene, 300.97 K | 0.013
in chlorobenzene, 304.47 K | 0.0149
in chlorobenzene, 308.86 K | 0.0156
in chlorobenzene, 313.71 K | 0.0195
in chlorobenzene, 319.15 K | 0.0274
in chlorobenzene, 325.56 K | 0.036
in chlorobenzene, 332.4 K | 0.047
in chlorobenzene, 338.93 K | 0.0597
in chlorobenzene, 342.74 K | 0.07
in chlorobenzene, 346.96 K | 0.0853
in chlorobenzene, 349.4 K | 0.0974
in chlorobenzene, 352.87 K | 0.116
in chlorobenzene, 355.3 K | 0.131
in water, 308.6 K | 0.000258
in water, 314.7 K | 0.000336
in water, 320.97 K | 0.000396
in water, 332.2 K | 0.000496
in water, 337.7 K | 0.000579
in water, 342.4 K | 0.000688
in water, 347.77 K | 0.000763
in water, 352.6 K | 0.000859
in water, 358.3 K | 0.000984
in water, 362.37 K | 0.00115
